Reference: ChEMBL document CHEMBL1129446, “Hydroxamic acid-based bisubstrate analog inhibitors of Ras farnesyl protein transferase” (J Med Chem, 1996)

Target: Protein farnesyltransferase (Sus scrofa)
Experiment: In vitro activity against Protein farnesyltransferase
Conditions: read-out: I50

Point of comparison: CSCC[C@H](NC(=O)[C@@H](NC(=O)[C@@H](NC(=O)CC(=O)N(O)C/C=C(\C)CC/C=C(\C)CCC=C(C)C)C(C)C)C(C)C)C(=O)O, IC50 0.33 µM. Against it:
- CC(C)C[C@H](NC(=O)[C@@H](NC(=O)[C@H](CC(=O)N(C)OCc1ccccc1)NC(=O)OC(C)(C)C)C(C)C)C(=O)N[C@@H](CO)C(=O)O — higher, > 360 µM
- CC(C)C[C@H](NC(=O)[C@@H](NC(=O)[C@@H](N)CC(=O)N(C)O)C(C)C)C(=O)N[C@@H](CO)C(=O)O — higher, > 360 µM
- CC(C)=CCC/C(C)=C/CC/C(C)=C/CN(O)C(=O)CCC(=O)N[C@H](C(=O)N[C@@H](CC(C)C)C(=O)N[C@@H](CO)C(=O)O)C(C)C — 130-fold higher, 42.5 µM
- CSCC[C@@H](NC(=O)[C@@H](NC(=O)[C@@H](NC(=O)CC(=O)N(O)C/C=C(\C)CC/C=C(\C)CCC=C(C)C)C(C)C)C(C)C)C(=O)O — 92-fold higher, 30.5 µM
- CSCC[C@H](NC(=O)[C@@H](NC(=O)[C@@H](NC(=O)CC(=O)N(O)CC/C=C(\C)CC/C=C(\C)CCC=C(C)C)C(C)C)C(C)C)C(=O)O — 17-fold higher, 5.6 µM
- CC(C)C[C@H](NC(=O)[C@@H](NC(=O)[C@@H](N)CC(=O)N(C)OCc1ccccc1)C(C)C)C(=O)N[C@@H](CO)C(=O)O — higher, > 360 µM
- CC(C)C[C@H](NC(=O)[C@@H](NC(=O)[C@H](CC(=O)N(C)O)NC(=O)OC(C)(C)C)C(C)C)C(=O)N[C@@H](CO)C(=O)O — higher, > 360 µM
